Test results reported in patent US20080038840A1, “Fluorescent Method And Compounds To Monitor Protein-Lipid Binding” (EUROPAEISCHES LABORATORIUM FUER MOLEKULARBIOLOGIE, priority 2004, published 2008).
Entries after “also recorded” stand apart in the source; their conditions may differ. Read-outs that look alike come from different tables or passages of the source.

Legend:
[1] = Excitation and emission values of the fluorescent dyes in solvent; type: physicochemical; conditions: for Emission / Excitation: measured in methanol
Description: Some exemplary fluorescent dyes according to the invention together with values for excitation and emission are included in table 1. […] The excitation and emission values of the fluorescent dyes were measured in methanol, which simulates a protein-environment, thus yielding a shift of the emission to shorter wavelengths. For comparison, excitation and emission values for compound 10 were also measured in HEPES buffer (i.e. under initial, aqueous assay conditions). In this aqueous environment, the excitation is 620 nm and the emission is 688 nm compared to an emission at 662 nm in methanol.
(§1) The fluorescent dye will bind to any lipid-binding site of the protein, and the resulting increase in the hydrophobicity surrounding of the dye will result in an increase in the intensity of the fluorescence and a shift in the emission to a shorter wavelength. The emission-wavelength of a compound according to formula I in a hydrophobic surrounding can be determined in a non-aqueous solution such as methanol.

[2] = molecular target: T1, peroxisomal matrix protein (SCP2) (Homo sapiens, UniProt P22307); experiment: Titration of fluorescent dye with peroxisomal matrix protein (SCP2); type: binding; conditions: dye 250 nM, FIG. 2b
T1 sequence (P22307 1-143 isoform P22307-2): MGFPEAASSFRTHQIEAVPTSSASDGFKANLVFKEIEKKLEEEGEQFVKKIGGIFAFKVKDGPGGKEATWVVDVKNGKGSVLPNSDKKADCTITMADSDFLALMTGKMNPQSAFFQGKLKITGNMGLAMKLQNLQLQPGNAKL
Text: (§2) In a preferred embodiment of the invention, the assay for identifying lipid binding sites of proteins using the compounds according to formula I as defined above, comprises the steps of • a) dissolving a compound according to formula I as defined above in an aqueous solvent, • b) adding the protein to be tested for containing a lipid binding site, preferably in various concentrations, • c) measuring the intensity of fluorescence emission at the wavelength of maximal emission of the fluorescent dye.
as §1
(§3) For determining the submaximal concentration of dye binding to the protein, the latter was titrated until no further fluorescence increase at 620 nm could be detected.

[3] = molecular target: bovine serum albumin (BSA) (Bos taurus, UniProt P02769); experiment: Titration of fluorescent dye with bovine serum albumin (BSA); type: binding; conditions: for wavelength of maximal emission intensity: FIG. 1a/1b
bovine serum albumin (BSA), sequence (P02769 25-607): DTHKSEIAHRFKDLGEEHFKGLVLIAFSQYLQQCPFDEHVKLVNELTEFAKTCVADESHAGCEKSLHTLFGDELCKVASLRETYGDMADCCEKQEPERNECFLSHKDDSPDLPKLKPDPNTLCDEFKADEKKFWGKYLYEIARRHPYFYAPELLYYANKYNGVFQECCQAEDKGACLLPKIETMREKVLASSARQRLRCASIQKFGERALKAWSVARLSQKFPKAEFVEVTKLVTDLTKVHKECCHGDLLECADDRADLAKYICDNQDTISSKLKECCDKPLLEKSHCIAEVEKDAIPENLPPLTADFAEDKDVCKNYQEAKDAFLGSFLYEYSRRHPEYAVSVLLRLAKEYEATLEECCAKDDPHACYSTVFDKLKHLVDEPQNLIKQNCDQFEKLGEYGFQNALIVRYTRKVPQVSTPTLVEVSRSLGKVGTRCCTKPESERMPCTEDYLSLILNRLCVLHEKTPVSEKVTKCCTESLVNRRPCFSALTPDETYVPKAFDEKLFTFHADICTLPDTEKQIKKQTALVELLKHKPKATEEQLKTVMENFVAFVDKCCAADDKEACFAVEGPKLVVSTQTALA
Text: as §2, §1, §3

[4] = Water solubility; type: physicochemical
[5] = molecular target: cytochrome c (Homo sapiens, UniProt P99999); conditions: whole cells; cited from earlier work
cytochrome c, sequence (P99999 whole entry, species assumed): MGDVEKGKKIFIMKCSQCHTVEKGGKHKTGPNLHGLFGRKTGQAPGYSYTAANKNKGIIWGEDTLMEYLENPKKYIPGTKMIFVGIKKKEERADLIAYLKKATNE

[6] = molecular target: BSA (Bos taurus, UniProt P02769)
BSA, sequence (P02769 25-607): as the sequence (P02769 25-607) above
Description: Depending on the strength of the binding of the ligand to the lipid binding site of the protein, the ligand releases the fluorescent dye from the hydrophobic lipid binding site. This can be measured by a decrease of the intensity of fluorescence at the emission wavelength of the dye in hydrophobic surrounding, as imitated by dissolving the dye in methanol.
Increasing concentrations of lipid or drug were added to replace the dye in a dose-dependent fashion. Fluorescence values at 620 nm were corrected for basal fluorescence at 620 nm prior to protein addition as well as for dilution effects from adding increasing ligand concentrations. The starting fluorescence value minus the value at a given ligand concentration was plotted as % replacement.

Structure (SMILES)	Emission [1] [nm]	Excitation [1] [nm]	other results
CCN(CC)c1cc(C)c2nc3c4ccc(O)cc4c(=O)cc-3sc2c1 [compound 6, 9-Diethylamino-3-hydroxy-11-methyl-benzo[a]phenothiazin-5-one]	665	580	
CCN(CC)c1ccc2nc3c4cc(O)ccc4c(=O)c(Br)c-3oc2c1 [compound 2]	640	550	
CCCCOc1ccc2c3nc4ccc(N(CC)CC)cc4oc-3c(Br)c(=O)c2c1 [compound 8]	650	556	Quantum Yield [1]: 0.35
CCN(CC)c1ccc2nc3c4cc(O)ccc4c(=O)c(Cl)c-3oc2c1 [compound 3]	643	549	
CCCCOc1ccc2c3nc4c(C)cc(N(CC)CC)cc4sc-3cc(=O)c2c1 [compound 7]	664	585	Quantum Yield [1]: 0.29
CCN(CC)c1ccc2nc3c4cc(OCCCC(=O)O)ccc4c(=O)cc-3oc2c1 [compound 11, nile red butyric acid]	631	544	binding of SCP2 to dye compared with BSA and MAO B [2]: weakest; change of fluorescence on titration with BSA ([3]; FIG. 1a (dye 0.25 μM) / FIG. 1b (dye 3 μM)): shift in the emission to a shorter wavelength and an increase in the intensity of the fluorescence; binding of BSA to dye compared with SCP2 and MAO B ([3]; dye 250 nM, FIG. 2b): strongest binding; wavelength of maximal emission intensity ([3]; in the absence of BSA): 657 nm; wavelength of maximal emission intensity ([3]; in the presence of BSA): 620 nm; water solubility [4]: increased water solubility
CCN(CC)c1ccc2nc3c4ccccc4c(=O)cc-3oc2c1 [nile red]			quenching of fluorescence by cytochrome c [5]: strong quenching effect
CCN(CC)c1ccc2nc3c4cc(O)ccc4c(=O)cc-3oc2c1 [compound 1]	629	540	
CCN(CC)c1ccc2nc3c4ccc(O)c(Br)c4c(=O)c(Br)c-3oc2c1 [compound 5, 4,6-Dibromo-9-diethylamino-3-hydroxy-benzo[a]phenoxazin-5-one]	653	562	
N[C@@H](Cc1c[nH]c2ccccc12)C(=O)O [tryptophan]			release of dye from BSA ([6]; 2BrNR 250 nM, 5.54 μM BSA, 282.62 μM ligand, FIG. 5a): not able to release all the dye from BSA; release of dye from BSA ([6]; NRBA, 2 μM BSA, 1 mM ligand, FIG. 5b): not able to release all the dye from BSA; lipid binding sites of albumin occupied / dye molecules replaced ([6]; replacement of NRBA from 2 μM BSA, FIG. 4/5b): only replaced one molecule of the dye; also recorded: occupation of one binding site
CCN(CC)c1ccc2nc3c4ccc(O)cc4c(=O)c(Br)c-3oc2c1 [compound 4, 6-Bromo-9-diethylamino-3-hydroxy-benzo[a]phenoxazin-5-one]	650	552	
